Test results: PMC6332320, “Factors Influencing Oral Bioavailability of Thai Mango Seed Kernel Extract and Its Key Phenolic Principles” (Molecules, 2015)
Values joined by “and” are separate entries in the source; they are usually repeats but may differ in a detail not shown here. Equal entries are not always repeated. Where two headings read alike, the source gives them in different places.

How the values were obtained:
[1] = Chemical stability in HBSS at pH 5, 6, 7 and 8; format: physicochemical
Method: The chemical stability of GA, MG, PGG and MSKE was determined in HBSS at pH 5, 6, 7 and 8. The test compounds were added to HBSS to obtain the final concentrations (2 and 20 μM) for each standard compound or MSKE (0.25 mg/mL), which is equivalent to concentrations of 26.70 ± 1.35 µM GA, 4.90 ± 0.38 µM MG and 27.09 ± 8.01 µM PGG. The solutions at pH 5, 7 and 8 were then incubated in a water bath at 37 °C for 4 h, whereas the solutions at pH 6 were incubated for 8 h. Samples (200 μL) were collected at different time intervals (0, 1, 2, 3 and 4 h or 0, 1, 2, 4, 6 and 8 h) and then vortexed and centrifuged at 15,500 rpm for 15 min. The supernatant was injected into the UPLC for analysis. All experiments were performed in triplicate.
(§1) The chemical and biological stabilities of the phenolic compounds were expressed as the concentration of the analyte at different time points relative to the concentration of the same analyte at time zero multiplied by 100 (% recovery).

[2] = Caco-2 transepithelial transport experiment; format: in vitro ADME, human; conditions: human
Method: The transport experiment using Caco-2 monolayer was performed according to the criteria in our laboratory as previously reported with slight modification. Briefly, the cell monolayers were prepared by seeding 400,000 cells onto a polycarbonate insert, which has a surface area and pore size of 4.2 cm^2 and 3 μm, respectively (Nunc™, Thermo Fisher Scientific, Waltham, MA, USA). Cells were maintained in a humidified atmosphere at 37 °C (90% humidity and 5% CO2) and fed every other day. After 19 to 22 days post-seeding, the cell monolayers were used in the experiments. Before the experiment, the monolayers were quickly washed twice with pre-warmed HBSS at pH 7.4 (37 °C). The integrity of each monolayer was then verified by measuring the transepithelial electrical resistance (TEER) using a Millicell® ERS meter (Millipore, Bedford, MA, USA), and layers with TEER values less than 400 Ω/cm^2 relative to that of the blank insert were discarded. Then, the monolayers were incubated with the HBSS buffer at 37 °C for 1 h, and the incubation buffer was then aspirated. The test compounds were dissolved in HBSS at pH 6 to obtain final concentrations for the individual compounds (20 μM), mixture (20 μM) and MSKE (0.25 mg/mL), which were then loaded onto the A or B side (2.6 mL) as the donor side. A 2.6 mL aliquot of HBSS at pH 6 without the test compounds was loaded into the other side as the receiver side. After incubation at 37 °C, 0.6 mL of sample was collected from the receiver side at indicated times (60, 120, 180 and 240 min), and the same volume of receiver medium was replaced after each sampling. At the end of the experiment, the cells were washed twice with ice-cold HBSS at pH 6. The cells in each well were then collected and resuspended in 600 μL of HBSS at pH 6, and sonicated in an ice water bath at an output of 9 W for 30 min to obtain the cell lysates. The lysate was divided into the following aliquots: (1) 20 μL for quantitative protein assessment using a BCA™ protein assay kit and (2) 580 μL for quantitative test compounds. The samples collected from the transport study were stored at −20 °C until the UPLC or LC–MS/MS analysis. The experiments were performed in triplicate.
The apparent permeability coefficient (Papp, cm/s) of each compound was calculated according to the following equation (Equation (1)): (1) Papp= dQ/dt×1/AC0 where dQ/dt is the compound permeation rate (nmol/s), A denotes the membrane surface area, and C0 is the initial concentration on the donor side (µM). The efflux ratio was calculated according to the following equation (Equation (2)): (2) Efflux ratio= Papp BA(mean)/Papp AB(mean) where Papp BA (mean) and Papp AB (mean) are the average apparent permeability coefficients of each compound from side B to side A, and from side A to side B, respectively.

in vitro = in vitro ADME, rat; conditions: Sprague-Dawley, pH 6, rat fecal lysates, 24 h; for recovery at 24 h, 100 µg/mL: as principle in MSKE 100 µg/mL, relative to HBSS, read-out: relative recovery after incubation with the fecal lysates
Method: (§2) The rat fecal lysate was prepared according to the method of Niu et al. with slight modifications. Briefly, 3 g of feces was collected from SD rats (8–10 weeks, n = 6) were then washed with ice-cold 0.1 mM potassium phosphate buffer (KPi, 10 mL). After resuspension in ice-cold 0.1 mM KPi (20 mL), the feces were vortexed and sonicated in an ice water bath for 45 min. To obtain the fecal lysate, the mixture was centrifuged at 15,000 rpm at 4 °C for 30 min. The supernatant was collected and maintained at –80 °C until use. The protein concentration in the fecal lysate was determined using a BCA™ protein assay kit.
(§3) The prepared fecal lysate was thawed and diluted with ice-cold HBSS at pH 6 to obtain a final concentration of 0.5 mg/mL protein for each test. […] The mixtures were then incubated in water bath at 37 °C for 24 h. After samples (200 μL) were collected at each specific time point (0, 1, 2, 8, and 24 h), the reaction was stopped by adding ice-cold methanol (50 μL). The samples were then vortexed and centrifuged at 15,500 rpm for 15 min, and the supernatant was injected into the UPLC for analysis.
as §1

rat fecal lysates = test: in vitro; format: in vitro ADME; conditions: for recovery after incubation with inactive fecal lysates and HBSS at pH 6 / recovery after incubation with fecal lysates: as principle in MSKE 100 µg/mL; for recovery after incubation with fecal lysates / stability in inactive rat fecal lysates or HBSS at pH 6: 24 h
Method: as §2, §3, §1

[3] = human, in vivo, po; cited from earlier work
[4] = cited from earlier work
[5] = rats, i.p., mixture of MG and PGG 20 mg/kg each, cited from earlier work
[6] = as principle in MSKE 0.25 mg/mL, pH 5, 6 or 7, 4 h
[7] = as principle in MSKE 0.25 mg/mL, pH 6, 8 h
[8] = as principle in MSKE 0.25 mg/mL, pH 8, 4 h
[9] = individual compound 2 and 20 µM, pH 5 or 7, 4 h, 37 °C

## O=C(O)c1cc(O)c(O)c(O)c1 [GA, Gallic acid]
[1]; [6]
  chemical stability in HBSS: stable
[1]; [7]
  chemical stability in HBSS: moderately increased recovery
[1]; [8]
  chemical stability in HBSS: decomposed
[1]; [9]
  chemical stability in HBSS: only stable at pH 7
[2]; Caco-2, pH 6, Papp A to B
  Papp A→B at 240 min: 1.46 ± 0.21 ×10⁻⁶ cm/s
[2]; Caco-2, pH 6, Papp B to A
  Papp B→A at 240 min: 8.04 ± 0.43 ×10⁻⁶ cm/s
  Papp B→A at 240 min, 20 µM: 1.02 ± 0.29 ×10⁻⁶ cm/s
In vitro
  recovery at 24 h, 100 µg/mL: 167%
Rat fecal lysates; PGG 10 µM incubated with rat fecal lysates
  maximum GA concentration increase after hydrolysis of PGG: approximately 4 fold
Rat fecal lysates
  recovery after incubation with inactive fecal lysates and HBSS at pH 6: increased recoveries
Rat fecal lysates; rat fecal lysates
  recovery after incubation with fecal lysates: increased recoveries
Rat fecal lysates; individual compound 10 µM
  stability in inactive rat fecal lysates or HBSS at pH 6: not significantly different from the initial concentrations
[3]
  t1/2: ~1 h
[4]; rat, in vivo, po, 100 umol/kg
  Cmax: 0.71 µM
  elimination t1/2: 0.4 h
[4]; rats, p.o., GA as pure compound or component of rhubarb and grape seed extract, plasma
  Tmax: approximately 60 min

## COC(=O)c1cc(O)c(O)c(O)c1 [MG, methyl gallate]
[1]; [6]
  chemical stability in HBSS: increased recoveries
[1]; [7]
  chemical stability in HBSS: dramatically increased recoveries
[1]; [8]
  chemical stability in HBSS: slightly decreased recovery
[1]; [9]
  chemical stability in HBSS: only stable at pH 7
[2]; Caco-2, pH 6, as principle in MSKE 0.25 mg/mL, HBSS pH 6, read-out: Papp A to B
  Papp A→B at 240 min: 17.6 ± 1.54 ×10⁻⁶ cm/s
[2]; Caco-2, pH 6, as principle in MSKE 0.25 mg/mL, HBSS pH 6, read-out: Papp B to A
  Papp B→A at 240 min: 11.3 ± 0.31 ×10⁻⁶ cm/s
[2]; Caco-2, pH 6, as principle in MSKE 0.25 mg/mL, Papp BA/Papp AB, read-out: Efflux Ratios
  efflux ratio at 240 min: 0.66
[2]; Caco-2, pH 6, in mixture 20 μM, Papp BA/Papp AB, read-out: Efflux Ratios
  efflux ratio at 240 min, 20 µM: 0.51
[2]; Caco-2, pH 6, in mixture of GA, MG, PGG 20 μM, HBSS pH 6
  Papp A→B at 240 min, 20 µM: 12.5 ± 0.63 ×10⁻⁶ cm/s
[2]; Caco-2, pH 6, in mixture of GA, MG, PGG 20 μM, HBSS pH 6, read-out: Papp B to A
  Papp B→A at 240 min, 20 µM: 6.33 ± 0.57 ×10⁻⁶ cm/s
[2]; Caco-2, pH 6, individual compound 20 μM, HBSS pH 6
  Papp A→B at 240 min, 20 µM: 13.6 ± 0.4 ×10⁻⁶ cm/s
[2]; Caco-2, pH 6, individual compound 20 μM, HBSS pH 6, read-out: Papp B to A
  Papp B→A at 240 min, 20 µM: 7.02 ± 1.11 ×10⁻⁶ cm/s
[2]; Caco-2, pH 6, individual compound 20 μM, Papp BA/Papp AB, read-out: Efflux Ratios
  efflux ratio at 240 min, 20 µM: 0.52
In vitro; rat fecal lysate
  recovery at 24 h, 100 µg/mL: 54.7%
In vitro; rat fecal lysate, mixture of GA, MG and PGG 10 µM each, read-out: recovery after incubation with the fecal lysates
  recovery at 24 h, 10 µM: 55.4%
Rat fecal lysates
  recovery after incubation with inactive fecal lysates and HBSS at pH 6: increased recoveries
Rat fecal lysates; rat fecal lysates
  recovery after incubation with fecal lysates: increased recoveries
Rat fecal lysates; individual compound 10 µM
  stability in inactive rat fecal lysates or HBSS at pH 6: stable
Rat fecal lysates; individual compound 10 µM, rat fecal lysates
  time to complete degradation in fecal lysates: ≤ 8 h
Rat fecal lysates; mixture of GA, MG and PGG 10 µM each, PGG after 8 h
  stability in inactive fecal lysates: good stabilities
[5]; blood
  Cmax: 35 µM and 34.7 µM
  Tmax: 0.85 ± 0.70 h
[5]
  CL: 2665.2 ± 1268 mL/min/kg
  Ke: 0.056 ± 0.032 h⁻¹
  MRTlast: 8.71 ± 2.53 h
  Vd: 530.95 ± 247.54 L/kg
  t1/2: 17.50 ± 12.25 h
